Laboratory results reported in ChEMBL document CHEMBL1681651, “A broad spectrum anticancer nucleoside with selective toxicity against human colon cells in vitro” (2011).
Where “and” joins values, the source holds several entries; their conditions need not be identical. Equal values may be shown once.

Legend:
Type in all cases: functional
PC-3 [1] = assay: Growth inhibition of human PC3 cells assessed as cell growth at 0.1 uM after 48 hrs by SRB assay; conditions: PC-3, 48 h, read-out: Activity
MCF7 = assay: Growth inhibition of human MCF7 cells assessed as cell growth at 1 mM after 48 hrs by SRB assay; parameters: Activity: scale not given: the % may be the effect or the level left
HT-29 = assay: Growth inhibition of human HT-29 cells assessed as cell growth at 0.1 uM after 48 hrs by SRB assay; conditions: HT-29, 48 h, read-out: Activity
HCT-116 = assay: Growth inhibition of human HCT116 cells assessed as cell growth at 10 uM after 48 hrs by SRB assay; conditions: HCT-116, 48 h, read-out: Activity
HOP-62 = assay: Growth inhibition of human HOP62 cells assessed as cell growth at 1 mM after 48 hrs by SRB assay; conditions: HOP-62, 48 h, read-out: Activity
A549 = assay: Growth inhibition of human A549 cells assessed as cell growth at 1 mM after 48 hrs by SRB assay; conditions: A549, 48 h, read-out: Activity
DU-145 = assay: Growth inhibition of human DU145 cells assessed as cell growth at 0.1 uM after 48 hrs by SRB assay; conditions: DU-145, 48 h, read-out: Activity
MDA-MB-468 = assay: Growth inhibition of human MDA-MB-468 cells assessed as cell growth at 10 uM after 48 hrs by SRB assay; conditions: MDA-MB-468, 48 h, read-out: Activity
PC-3 [2] = assay: Growth inhibition of human PC3 cells assessed as cell growth at 1 mM after 48 hrs by SRB assay; conditions: PC-3, 48 h, read-out: Activity
[3] = Growth inhibition of human […] cells assessed as cell growth at 100 uM after 48 hrs by SRB assay; conditions: read-out: Activity
786-0 = assay: Growth inhibition of human 786-0 cells assessed as cell growth at 0.1 uM after 48 hrs by SRB assay; conditions: 786-0, 48 h, read-out: Activity
PC-3 [4] = assay: Growth inhibition of human PC3 cells assessed as cell growth at 100 uM after 48 hrs by SRB assay; conditions: PC-3, 48 h, read-out: Activity
SNB-19 = assay: Growth inhibition of human SNB19 cells assessed as cell growth at 10 uM after 48 hrs by SRB assay; conditions: SNB-19, 48 h, read-out: Activity
PC-3 [5] = assay: Growth inhibition of human PC3 cells assessed as cell growth at 1 uM after 48 hrs by SRB assay; conditions: PC-3, 48 h, read-out: Activity
K562 [6] = assay: Growth inhibition of human K562 cells assessed as cell growth at 0.1 uM after 48 hrs by SRB assay; conditions: K562, 48 h, read-out: Activity
SR [7] = assay: Growth inhibition of human SR cells assessed as cell growth at 0.1 uM after 48 hrs by SRB assay; conditions: read-out: Activity
[8] = Growth inhibition of human Hs 578T cells assessed as cell growth at 10 uM after 48 hrs by SRB assay; conditions: read-out: Activity
SW-620 [9] = assay: Growth inhibition of human SW620 cells after 48 hrs by […] growth inhibition assay; conditions: SW-620, 48 h
SW-620 [10] = assay: Growth inhibition of human SW620 cells assessed as cell growth at 1 mM after 48 hrs by SRB assay; conditions: SW-620, 48 h, read-out: Activity
SW-620 [11] = assay: Growth inhibition of human SW620 cells assessed as cell growth at 1 uM after 48 hrs by SRB assay; conditions: SW-620, 48 h, read-out: Activity
SR [12] = assay: Growth inhibition of human SR cells assessed as cell growth at 100 uM after 48 hrs by SRB assay; conditions: read-out: Activity
HL-60(TB) [13] = assay: Growth inhibition of human HL-60(TB) cells assessed as cell growth at 100 uM after 48 hrs by SRB assay; conditions: HL-60, 48 h, read-out: Activity
K562 [14] = assay: Growth inhibition of human K562 cells assessed as cell growth at 1 mM after 48 hrs by SRB assay; conditions: K562, 48 h, read-out: Activity
SW-620 [15] = assay: Growth inhibition of human SW620 cells assessed as cell growth at 0.1 uM after 48 hrs by SRB assay; conditions: SW-620, 48 h, read-out: Activity
SR [16] = assay: Growth inhibition of human SR cells after 48 hrs by SRB assay
SK-MEL-28 [17] = assay: Growth inhibition of human SK-MEL-28 cells assessed as cell growth at 1 uM after 48 hrs by SRB assay; conditions: SK-MEL-28, 48 h, read-out: Activity
MOLT-4 [18] = assay: Growth inhibition of human MOLT4 cells assessed as cell growth at 100 uM after 48 hrs by SRB assay; conditions: MOLT-4, 48 h, read-out: Activity
MOLT-4 [19] = assay: Growth inhibition of human MOLT4 cells assessed as cell growth at 0.1 uM after 48 hrs by SRB assay; conditions: MOLT-4, 48 h, read-out: Activity
K562 [20] = assay: Growth inhibition of human K562 cells assessed as cell growth at 1 uM after 48 hrs by SRB assay; conditions: K562, 48 h, read-out: Activity
SK-MEL-28 [21] = assay: Growth inhibition of human SK-MEL-28 cells assessed as cell growth at 100 uM after 48 hrs by SRB assay; conditions: SK-MEL-28, 48 h, read-out: Activity
SK-MEL-28 [22] = assay: Growth inhibition of human SK-MEL-28 cells assessed as cell growth at 0.1 uM after 48 hrs by SRB assay; conditions: SK-MEL-28, 48 h, read-out: Activity
SW-620 [23] = assay: Growth inhibition of human SW620 cells assessed as cell growth at 100 uM after 48 hrs by SRB assay; conditions: SW-620, 48 h, read-out: Activity
SR [24] = assay: Growth inhibition of human SR cells assessed as cell growth at 1 mM after 48 hrs by SRB assay; conditions: read-out: Activity
NCI/ADR-RES = assay: Growth inhibition of human NCI/ADR-RES cells assessed as cell growth at 1 mM after 48 hrs by SRB assay; conditions: read-out: Activity
K562 [25] = assay: Growth inhibition of human K562 cells assessed as cell growth at 10 uM after 48 hrs by SRB assay; conditions: K562, 48 h, read-out: Activity
HL-60(TB) [26] = assay: Growth inhibition of human HL-60(TB) cells assessed as cell growth at 0.1 uM after 48 hrs by SRB assay; conditions: HL-60, 48 h, read-out: Activity
T47D = assay: Growth inhibition of human T47D cells assessed as cell growth at 100 uM after 48 hrs by SRB assay; conditions: read-out: Activity
[27] = Growth inhibition of human Hs 578T cells after 48 hrs by […] growth inhibition assay
[28] = Growth inhibition of human Hs 578T cells assessed as cell growth at 100 uM after 48 hrs by SRB assay; conditions: read-out: Activity
MOLT-4 [29] = assay: Growth inhibition of human MOLT4 cells assessed as cell growth at 1 uM after 48 hrs by SRB assay; conditions: MOLT-4, 48 h, read-out: Activity
[30] = Growth inhibition of human Hs 578T cells assessed as cell growth at 1 uM after 48 hrs by SRB assay; conditions: read-out: Activity
[31] = read-out: LC50 (the source's name)
[32] = read-out: pLC50 (the source's name) (converted)

With `CNC(=O)NC[C@H]1O[C@@H](n2cnc3c(NC(=O)Nc4ccccc4)ncnc32)[C@H](O[Si](C)(C)C(C)(C)C)[C@@H]1O[Si](C)(C)C(C)(C)C` the growth at 0.1 µM (PC-3 [1]) was 93%, the Activity (MCF7) was -21% and -16% and the growth at 0.1 µM (HT-29) was 102%. It also gave a growth at 10 µM (HCT-116) of 102%, a growth at 1000 µM (HOP-62) of -86% and a growth at 1000 µM (A549) of -30%. The growth at 0.1 µM (DU-145) was 103%, the growth at 10 µM (MDA-MB-468) was 99% and the growth at 1000 µM (PC-3 [2]) was 4%. It also gave a growth at 100 µM [3] of 5%, a growth at 0.1 µM (786-0) of 108% and a growth at 100 µM (PC-3 [4]) of 6%. The growth at 10 µM (SNB-19) was 91% and the growth at 1 µM (PC-3 [5]) was 91%.
`CNC(=O)NC[C@H]1O[C@@H](n2cnc3c(NC(=O)Nc4ccccc4)ncnc32)[C@H](O[Si](C)(C)C(C)(C)C)[C@@H]1CC(=O)N(C)OC` gave a growth at 0.1 µM (K562 [6]) of 95%, a growth at 0.1 µM (SR [7]) of 85% and a growth at 10 µM [8] of 82%. The GI50 (SW-620 [9]; read-out: GI50) was greater than 100 µM, the CC50 (SW-620 [9]; [31]) was greater than 100 µM and the TGI (SW-620 [9]; read-out: TGI) was greater than 100 µM. It also gave a GI50 (SW-620 [9]; read-out: pGI50 (converted)) greater than 100 µM, a CC50 (SW-620 [9]; [32]) greater than 100 µM and a TGI (SW-620 [9]; read-out: pTGI (converted)) greater than 100 µM. For the same molecule, the growth at 1000 µM (SW-620 [10]) was 50%, the growth at 0.1 µM (HT-29) was 104% and the growth at 1 µM (SW-620 [11]) was 102%. For the same molecule, the growth at 100 µM (SR [12]) was -53%, the growth at 10 µM (HCT-116) was 89% and the growth at 100 µM (HL-60(TB) [13]) was -48%. The growth at 1000 µM (K562 [14]) was 24%, the growth at 0.1 µM (SW-620 [15]) was 99% and the GI50 (SR [16]; read-out: GI50) was 1.27 µM. For the same molecule, the CC50 (SR [16]; [31]) was 9.43 µM, the TGI (SR [16]; read-out: TGI) was 3.46 µM and the GI50 (SR [16]; read-out: pGI50 (converted)) was 1.26 µM. The CC50 (SR [16]; [32]) was 9.33 µM, the TGI (SR [16]; read-out: pTGI (converted)) was 3.47 µM and the growth at 1000 µM (HOP-62) was 28%. The growth at 1 µM (SK-MEL-28 [17]) was 106%, the growth at 100 µM (MOLT-4 [18]) was -2% and the growth at 0.1 µM (MOLT-4 [19]) was 96%. For the same molecule, the growth at 1 µM (K562 [20]) was 95%, the growth at 100 µM (SK-MEL-28 [21]) was 44% and the growth at 0.1 µM (SK-MEL-28 [22]) was 97%. For the same molecule, the growth at 100 µM (SW-620 [23]) was 65%, the growth at 1000 µM (SR [24]) was -56% and the growth at 1000 µM (NCI/ADR-RES) was 55%. The growth at 10 µM (K562 [25]) was 82%, the growth at 1000 µM (A549) was 27% and the growth at 0.1 µM (DU-145) was 107%. The growth at 0.1 µM (HL-60(TB) [26]) was 95%, the growth at 100 µM (T47D) was 56% and the GI50 ([27]; read-out: GI50) was 5.79 µM. It also gave a CC50 [27, 31] greater than 100 µM, a TGI ([27]; read-out: TGI) greater than 100 µM and a GI50 ([27]; read-out: pGI50 (converted)) of 5.75 µM. For the same molecule, the CC50 [27, 32] was greater than 100 µM, the TGI ([27]; read-out: pTGI (converted)) was greater than 100 µM and the growth at 100 µM [28] was 40%. The growth at 100 µM [3] was -25%, the growth at 0.1 µM (786-0) was 95% and the growth at 1 µM (MOLT-4 [29]) was 90%. For the same molecule, the growth at 10 µM (SNB-19) was 83% and the growth at 1 µM [30] was 98%.
